These results are taken from PMC8634879, “Design, Synthesis, and Biological Evaluation of Pyrano[2,3-c]-pyrazole–Based RalA Inhibitors Against Hepatocellular Carcinoma” (Frontiers in Chemistry, 2021).

One data set concerns the target T1, RalA (Homo sapiens, UniProt P11233).
T1 construct: expressed in transfected cells; host or cells: HepG2 (from b6; the methods paragraph names no cell line)
T1 sequence (P11233 1-203 limits assumed): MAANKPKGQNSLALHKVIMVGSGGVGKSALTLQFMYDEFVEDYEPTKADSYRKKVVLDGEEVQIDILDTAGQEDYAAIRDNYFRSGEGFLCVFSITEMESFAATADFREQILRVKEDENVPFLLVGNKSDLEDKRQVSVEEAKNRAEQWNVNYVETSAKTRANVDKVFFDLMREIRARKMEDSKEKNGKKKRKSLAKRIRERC
As to the kind of experiment: ELISA-based RalA activity assay (RalBP1-coated plates, lysates of compound-treated cells). It counts as biochemical. Particulars: 1 μM compound; % control = activity remained. The method, then:
(§1) The in vitro RalA/B bioactivity assays were performed following methods outlined in previous reports. ([Yan et al., 2016]; [Zhang et al., 2018]; [Walsh et al., 2019]; [Bum-Erdene et al., 2020]). In brief, the lysates of the test compound or vehicle-treated cells were cleared using cold centrifugation, and supernatants were collected. An RalBP1 solution was added to 96-well plates and incubated for 1–2 h, and then the plates were washed thrice using ELISA buffer. Next, cellular lysates were added, and samples were incubated overnight at 4°C. Then, ice-cold mouse anti-FLAG antibody was added, and samples were incubated for one more hour. After subsequent washing with ELISA buffer thrice, the HRP-conjugated anti-mouse antibody was added, and samples were incubated for another hour. Then, the HRP substrate was added. Antigen–antibody reactions were quenched by the addition of sulfuric acid (2 mol/L). Remaining RalA/B was detected by the OD450 values which were collected by using a plate reader. Cell proliferation assays, colony formation assays, apoptosis assays, GST pulldown, and Western blotting were used following methods outlined in our previous reports. ([Zhou et al., 2015]; [Zhang et al., 2016]; [Yang et al., 2017]; [He et al., 2019]). Autophagy levels and protein immunoblotting were used following the methods mentioned in our previous reports ([Pan et al., 2018]; [Wang et al., 2018]; [Hao et al., 2019]; [Wang et al., 2019]; [Peng et al., 2020]). Detailed experimental procedures are described in supporting materials.

In the next data set the target is T2, RalB (Homo sapiens, UniProt P11234).
T2 construct: expressed in transfected cells; host or cells: HepG2 (from b6; the methods paragraph names no cell line)
T2 sequence (P11234 1-203 limits assumed): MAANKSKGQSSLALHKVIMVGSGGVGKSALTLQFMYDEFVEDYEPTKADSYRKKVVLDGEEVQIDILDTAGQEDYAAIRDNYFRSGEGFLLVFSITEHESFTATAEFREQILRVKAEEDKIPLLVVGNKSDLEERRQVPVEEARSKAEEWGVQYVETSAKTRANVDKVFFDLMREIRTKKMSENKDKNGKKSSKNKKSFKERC
As to the kind of experiment: ELISA-based RalB activity assay (RalBP1-coated plates, lysates of compound-treated cells). It counts as biochemical. As to conditions: 1 μM compound; % control = active (RalBP1-bound) RalB remaining. The procedure: as §1

The next data set has as its system HepG2 cells. Description: Cell proliferation assay (MTT), HepG2. Type of data set: cell-based. As to conditions: Homo sapiens, HepG2, Table 1, cell proliferation inhibition; read-out: IC50 (μM) HepG2. The procedure:
(§2) The antibodies recognizing LC3, p62/SQSTM1, RalA, RalB, and GAPDH were purchased from Proteintech (Wuhan, China). HCC cell lines, including HepG2, Hep3B, Huh-7, and SMMC-7721, were obtained from the Chinese Center for Type Culture Collection (Wuhan, China) and cultured in DMEM (Dulbecco’s modified Eagle’s medium) with 10% FBS (fetal bovine serum) and streptomycin. Cytotoxicity assays were performed by using the MTT method as previously described.
as §1

In a further data set the test system is Huh-7 cells. As to the kind of experiment: Cell proliferation assay (MTT), Huh-7. Type of data set: cell-based. Particulars: Homo sapiens, Table 1, cell proliferation inhibition, read-out: IC50 (μM) Huh7. The method, then:
as §2, §1

With `COc1ccc(S(=O)(=O)NC2=C(C#N)C(c3cccc(OC)c3)c3c(C)nn(-c4ccccc4Cl)c3O2)cc1` (stereo not shown) [4y, N-(1-(2-chlorophenyl)-5-cyano-4-(3-methoxyphenyl)-3-methyl-1,4-dihydropyrano[2,3-c]-pyrazol-6-yl)-4-methoxybenzenesulfonamide], the remaining activity at 1 µM amounted to 54% at RalA and 73% on RalB. The IC50 in the data set with HepG2 cells and in the data set with Huh-7 cells was greater than 10 µM throughout.
`Cc1ccc(S(=O)(=O)NC2=C(C#N)C(c3ccccc3)c3c(C)nn(-c4ccccc4)c3O2)cc1` (stereo not shown) [4a, N-(5-cyano-3-methyl-1,4-diphenyl-1,4-dihydropyrano[2,3-c]-pyrazole-6-yl)-4-methylbenzenesulfonamide]: the melting point lay within 68.3 to 69.7 °C. Moreover, the remaining activity at 1 µM at RalA amounted to 74%. This compound came in with a remaining activity at 1 µM on RalB of 85%. Further, the IC50 in the data set with HepG2 cells is greater than 10 µM. The IC50 with Huh-7 cells is greater than 10 µM.
Consider `Cc1ccc(S(=O)(=O)NC2=C(C#N)C(c3ccccc3)c3c(C)nn(-c4ccccc4Cl)c3O2)cc1` (stereo not shown) [4ad, N-(1-(2-chlorophenyl)-5-cyano-3-methyl-4-phenyl-1,4-dihydropyrano[2,3-c]-pyrazol-6-yl)-4-methylbenzenesulfonamide], for which the melting point was in the range of 77.4 to 78 °C. Also, the remaining activity at 1 µM at RalA amounted to 52%. For the same compound, at RalB, the remaining activity at 1 µM came out at 64%. Moreover, in the data set on HepG2 cells, the IC50 is greater than 10 µM. Further, the IC50 in the data set with Huh-7 cells was greater than 10 µM.
`COc1cccc(C2C(C#N)=C(NS(=O)(=O)c3ccc([N+](=O)[O-])cc3)Oc3c2c(C)nn3-c2ccccc2Cl)c1` (stereo not shown) [4ab, N-(1-(2-chlorophenyl)-5-cyano-4-(3-methoxyphenyl)-3-methyl-1,4-dihydropyrano[2,3-c]-pyrazol-6-yl)-4-nitrobenzenesulfonamide]: the values for the remaining activity at 1 µM at RalA and at RalB were 60% and 65%, respectively. The IC50 in the data set on HepG2 cells and in the data set with Huh-7 cells was greater than 10 µM each time.
For `COc1cccc(C2C(C#N)=C(NS(=O)(=O)c3ccccc3[N+](=O)[O-])Oc3c2c(C)nn3-c2ccccc2Cl)c1` (stereo not shown) [4z, N-(1-(2-chlorophenyl)-5-cyano-4-(3-methoxyphenyl)-3-methyl-1,4-dihydropyrano[2,3-c]-pyrazol-6-yl)-2-nitrobenzenesulfonamide], the remaining activity at 1 µM was 53% on RalA and 60% at RalB. The IC50 in the data set with HepG2 cells and in the data set with Huh-7 cells was greater than 10 µM throughout.
In the case of `Cc1ccc(S(=O)(=O)NC2=C(C#N)C(c3ccc(Cl)c(Cl)c3)c3c(C)nn(-c4ccccc4)c3O2)cc1` (stereo not shown) [4g, N-(5-cyano-4-(3,4-dichlorophenyl)-3-methyl-1-phenyl-1,4-dihydropyrano[2,3-c]-pyrazol-6-yl)-4-methylbenzenesulfonamide], the values for the remaining activity at 1 µM at RalA and on RalB were 66% and 58%, respectively. For the same compound, the IC50 in the data set with HepG2 cells and in the data set with Huh-7 cells was greater than 10 µM throughout.
`Cc1ccc(S(=O)(=O)NC2=C(C#N)C(c3cccnc3)c3c(C)nn(-c4ccccc4Cl)c3O2)cc1` (stereo not shown) [4t, N-(1-(2-chlorophenyl)-5-cyano-3-methyl-4-(pyridin-3-yl)-1,4-dihydropyrano[2,3-c]-pyrazol-6-yl)-4-methylbenzenesulfonamide]: the remaining activity at 1 µM on RalA amounted to 46%; on RalB it was 65%. The IC50 in the data set on HepG2 cells was 8.28 ± 0.89 µM; in the data set with Huh-7 cells it was greater than 10 µM.
Taken in the same sequence, the figures for `COc1cccc(C2C(C#N)=C(NS(=O)(=O)c3cccc([N+](=O)[O-])c3)Oc3c2c(C)nn3-c2ccccc2Cl)c1` (stereo not shown) [4aa, N-(1-(2-chlorophenyl)-5-cyano-4-(3-methoxyphenyl)-3-methyl-1,4-dihydropyrano[2,3-c]-pyrazol-6-yl)-3-nitrobenzenesulfonamide] were 72%, 73%, greater than 10 µM and greater than 10 µM.
